Data: patent publication US11052089B2, “Methods for inhibiting alpha-v beta-3 expression on cancer stem cells and inhibiting progression to a cancer stem cell phenotype” (The Regents of the University of California, priority 2014, dated 2021)

Assays:
Type in all cases: cell-based
[1] = system: stress induced drug resistant phenotype; experiment: Stress induced drug resistant phenotype, Erlotinib (FIG. 3C); details: serum, no serum, no serum and GSKJ4
Experimental: (§1) FIG. 3A, FIG. 3B, FIG. 3C and FIG. 3D graphically illustrate data showing that treatment with histone modification inhibitor(s) suppresses the stress induced drug resistant phenotype: FIG. 3A illustrates fold expression mRNA relative to serum after ITGB3 induction of control vehicle, 0.10 μM GSKJ4, and 0.25 μM GSKJ4; FIG. 3B illustrates fold expression mRNA relative to serum after Nanog induction of control vehicle, 0.10 μM GSKJ4, and 0.25 μM GSKJ4; FIG. 3C illustrates nM Erlotinib under conditions comprising serum, no serum and no serum and GSKJ4; and FIG. 3D illustrates fold expression mRNA relative to serum after ITGB3 induction with serum, no serum and no serum and GSKJ4.

[2] = system: lung cancer cells (HCC827); experiment: 14 day assay for cell surface induction of integrin β3 by nutrient deprivation, cell sorting (FIG. 13, FIG. 14); details: HCC827, nutrient deprivation (no serum)
[3] = system: ITGB3, Nanog and OCT4 induction; experiment: mRNA induction of ITGB3, Nanog, OCT4 with GSKJ-4 (FIG. 3, FIG. 11); details: relative to no serum
Experimental: as §1
FIG. 11A schematically illustrates, and FIG. 11B, FIG. 11C, FIG. 11D and FIG. 11E graphically illustrate that GSKJ-4, which targets histone demethylase JMJD3, suppresses β3 expression as well as pluripotent genes Nanog and OCT4, with the conclusion that GSKJ-4 suppresses ITGB3, Nanog and OCT4 induction by inhibiting JMJD3-targeted H3K27me3 demethylation; and FIG. 11B, FIG. 11C, FIG. 11D and FIG. 11E graphically illustrate fold induction mRNA relative to no serum as a function of GSKJ-4 suppression of ITGB3, Nanog and OCT4 induction, with FIG. 11B, FIG. 11C, FIG. 11D and FIG. 11E illustrating levels of ITGB3, Nanog, OCT4 and SOX2, respectively.

[4] = system: integrin β3 expression in HCC827 lung cancer cells; experiment: Stress induced integrin β3 and stem cell gene expression, gels (FIG. 12); details: nutrient deprivation (without serum), 0.1 uM
Excerpt: FIGS. 12A and 12B illustrate data showing the knockdown of P300 histone acetyl transferase (HAT), a known enzyme that targets H3K27ac, in HCC827 lung cancer cells. Histone acetyl transferase (acetyl p300) activity is increased during nutrient deprivation (without serum) leading to integrin β3 expression, which prevents stress-induced expression of integrin β3 and stem cell genes. Increase in histone acetyltransferase (HAT) p300 activity leads to upregulation of integrin β3. Loss of p300 histone acetyltransferase activity prevents the upregulation of integrin β3. Similar to chemical inhibition of HAT activity with anacardic acid at 0.1 uM concentration, a genetic approach was used to knockdown p300 histone acetyl transferase (HAT), a known enzyme that targets H3K27ac prevents expression of integrin β3 and stem cell genes.

[5] = system: ITGB3; experiment: ITGB3 induction in the presence of HAT inhibitor (FIG. 2)
Excerpt: FIG. 2 graphically illustrates data showing that ITGB3 induction is suppressed in the presence of histone acetyltransferase (HAT) inhibitor anacardic acid.

ITGB3 (β3) induction, fold induction mRNA [3]	Nanog induction, fold induction mRNA [3]	OCT4 induction, fold induction mRNA [3]	SMILES	stress induced drug resistant phenotype [1]	expansion of integrin β3 expressing stem population [2]	formation of the heterodimeric αVβ3 cell surface expression [2]	induction of integrin β3 gene expression [2]	downstream stem cell genes expression [4]	stress induced integrin β3 expression [4]	ITGB3 induction [5]
suppresses	suppresses	suppresses	CCOC(=O)CCNc1cc(N2CCc3ccccc3CC2)nc(-c2ccccn2)n1 [GSKJ4]	suppresses	prevents the expansion	prevents	prevents the induction			
			C=CC/C=C\C/C=C\CCCCCCCc1cccc(O)c1C(=O)O [anacardic acid, 2-hydroxy-6-[(8Z,11Z)-pentadeca-8,11,14-trienyl]benzoic acid]					prevents	prevents	suppressed
